# Where “and” joins values, the source holds several entries; their conditions need not be identical. Equal entries are not always repeated.
# Columns and labels:
# Spodoptera frugiperda = Spodoptera frugiperda spray test (SPODFR); assay type: in vivo; conditions: application rate 500 g/ha; maize leaf discs; after 7 days
# Description: Spodoptera frugiperda—Spray Test (SPODFR)
# (§1) Solvent: 78.0 parts by weight of acetone • • 1.5 parts by weight of dimethylformamide
# (§2) Emulsifier: alkylaryl polyglycol ether
# (§3) To produce an appropriate active ingredient formulation, 1 part by weight of active ingredient is dissolved using the stated parts by weight of solvent and made up with water containing an emulsifier concentration of 1000 ppm until the desired concentration is attained. To produce further test concentrations, the preparation is diluted with emulsifier-containing water.
# Leaf discs of maize (Zea mays) are sprayed with an active ingredient formulation of the desired concentration and, after drying, populated with caterpillars of the armyworm (Spodoptera frugiperda).
# After 7 days, the efficacy in % is determined. 100% means that all the caterpillars have been killed; 0% means that no caterpillars have been killed.
# Tetranychus urticae = Tetranychus urticae spray test, OP-resistant (TETRUR); assay type: in vivo; conditions: bean leaf discs, after 6 days
# Description: Tetranychus urticae—Spray Test, OP-Resistant (TETRUR)
# as §1, §2, §3
# Discs of bean leaves (Phaseolus vulgaris) infested by all stages of the greenhouse red spider mite (Tetranychus urticae) are sprayed with an active ingredient formulation of the desired concentration.
# After 6 days, the efficacy in % is determined. 100% means that all the spider mites have been killed; 0% means that none of the spider mites have been killed.
# Phaedon cochleariae = Phaedon cochleariae spray test (PHAECO); assay type: in vivo; conditions: larvae, after 7 days
# Description: Phaedon cochleariae—Spray Test (PHAECO)
# as §1, §2, §3
# Discs of Chinese cabbage leaves (Brassica pekinensis) are sprayed with an active ingredient formulation of the desired concentration and, after drying, populated with larvae of the mustard beetle (Phaedon cochleariae).
# After 7 days, the efficacy in % is determined. 100% means that all the beetle larvae have been killed; 0% means that no beetle larvae have been killed.
# [1] = log P by HPLC on a reversed-phase column (C 18), EEC Directive 79/831 Annex V.A8; assay type: physicochemical; conditions: 55° C.; for LOGP_HCOOH: acidic range, pH 2.7, 0.1% aqueous formic acid/acetonitrile; for LOGP_NEUTRAL: neutral range, pH 7.8, 0.001 molar aqueous ammonium hydrogencarbonate/acetonitrile
# Description: The log P values are measured according to EEC Directive 79/831 Annex V.A8 by HPLC (high-performance liquid chromatography) on a reversed-phase column (C 18). Temperature: 55° C. The LC-MS determination in the acidic range is effected at pH 2.7 using 0.1% aqueous formic acid and acetonitrile (contains 0.1% formic acid) as eluents, linear gradient from 10% acetonitrile to 95% acetonitrile. Called log P (HCOOH) in the table. LC-MS determination in the neutral range is effected at pH 7.8 with 0.001 molar aqueous ammonium hydrogencarbonate solution and acetonitrile as eluents; linear gradient from 10% acetonitrile to 95% acetonitrile. Called log P (neutral) in the table. Calibration is effected with unbranched alkan-2-ones (having 3 to 16 carbon atoms) with known log P values (log P values determined on the basis of the retention times by linear interpolation between two successive alkanone s).
# Myzus persicae [2] = test: Myzus persicae spray test (MYZUPE), Chinese cabbage leaf discs; assay type: in vivo; conditions: application rate 500 g/ha, after 6 days
# Description: (§4) Myzus persicae—Spray Test (MYZUPE)
# Solvent: 78 parts by weight of acetone • • 1.5 parts by weight of dimethylformamide
# (§5) Emulsifier: alkylaryl poly glycol ether
# as §3
# Discs of Chinese cabbage leaves (Brassica pekinensis) infested by all stages of the green peach aphid (Myzus persicae) are sprayed with an active ingredient formulation of the desired concentration.
# After 6 days, the efficacy in % is determined. 100% means that all the aphids have been killed; 0% means that none of the aphids have been killed.
# Meloidogyne incognita = Meloidogyne incognita test; assay type: in vivo; conditions: application rate 20 ppm; lettuce; after 14 days
# Description: Meloidogyne incognita Test Solvent: 125.0 parts by weight of acetone To produce a suitable active ingredient formulation, 1 part by weight of active ingredient is mixed with the stated amount of solvent and the concentrate is diluted with water to the desired concentration. Vessels are filled with sand, active ingredient solution, an egg/larvae suspension of the southern root-knot nematode (Meloidogyne incognita) and lettuce seeds. The lettuce seeds germinate and the plants develop. The galls develop on the roots. After 14 days, the nematicidal efficacy in % is determined by the formation of galls. 100% means that no galls were found; 0% means that the number of galls on the treated plants corresponds to the untreated control.
# Ctenocephalides felis = Ctenocephalides felis in vitro contact test; assay type: in vivo; conditions: application rate 5 μg/cm^2; adult cat fleas; after 48 h
# Description: Ctenocephalides felis—In Vitro Contact Test
# For the coating of the test tubes, 9 mg of active ingredient are first dissolved in 1 ml of acetone p.a. and then diluted to the desired concentration with acetone p.a. 250 μl of the solution are distributed homogeneously on the inner walls and base of a 25 ml test tube by turning and rocking on an orbital shaker (rocking rotation at 30 rpm for 2 h). With 900 ppm active ingredient solution and internal surface 44.7 cm^2, given homogeneous distribution, an area-based dose of 5 μg/cm^2 is achieved.
# After the solvent has evaporated off, the tubes are populated with 5-10 adult cat fleas (Ctenocephalides felis), sealed with a perforated plastic lid and incubated in a horizontal position at room temperature and ambient humidity. After 48 h, efficacy is determined. To this end, the test tubes are stood upright and the fleas are knocked to the base of the tube. Fleas which remain motionless at the base or move in an uncoordinated manner are considered to be dead or moribund.
# 100% efficacy means that all the fleas were dead or moribund. 0% efficacy means that no fleas were harmed.
# Lucilia cuprina = Lucilia cuprina test (LUCICU); assay type: in vivo; conditions: application rate 100 ppm; L1 larvae; after 2 days
# Description: Lucilia cuprina Test (LUCICU) Solvent: dimethyl sulphoxide To produce an appropriate active ingredient formulation, 10 mg of active ingredient are mixed with 0.5 ml of dimethyl sulphoxide, and the concentrate is diluted with water to the desired concentration. About 20 L1 larvae of the Australian sheep blowfly (Lucilia cuprina) are transferred into a test vessel containing minced horsemeat and the active ingredient preparation of the desired concentration. After 2 days, the kill in % is determined. 100% means that all the larvae have been killed; 0% means that none of the larvae have been killed.
# Aphis gossypii [3] = test: Aphis gossypii translaminar test (APHIGO t); assay type: in vivo; conditions: 2.4 g/ha, 7 dat
# Description: Aphis gossypii—Translaminar Test (APHIGO t)
# (§6) Solvent: 7 parts by weight of dimethylformamide
# as §2
# (§7) To produce an appropriate active ingredient formulation, 1 part by weight of active ingredient is dissolved using the stated parts by weight of solvent and made up with water containing an emulsifier concentration of 1000 ppm until the desired concentration is attained. To produce further test concentrations, the preparation is diluted with emulsifier-containing water. In the event that addition of ammonium salts or/and penetrants (rapeseed oil methyl ester) is required, these are each pipetted in a concentration of 1000 ppm after the finished formulation solution has been diluted.
# One-leaved cotton plants (Gossypium hirsutum) heavily infested by the cotton aphid (Aphis gossypii) are treated by spraying the top side of the leaf with the active ingredient formulation in the desired concentration.
# (§8) After the desired time, the kill in % is determined. 100% means that all the aphids have been killed and 0% means that none of the aphids have been killed.
# Myzus persicae [4] = test: Myzus persicae contact test (MYZUPE c); assay type: in vivo; conditions: 2.4 g/ha, 14 dat
# Description: Myzus persicae—Contact Test (MYZUPE c)
# as §6, §5, §7
# One-leaved bell pepper plants (Capsicum annuum) heavily infested by the green peach aphid (Myzus persicae) are treated by spraying the underside of the leaf with the active ingredient formulation in the desired concentration.
# as §8
# Nephotettix cincticeps = Nephotettix cincticeps test (NEPHCI); assay type: in vivo; conditions: 0.16 ppm
# Description: Nephotettix cincticeps Test (NEPHCI)
# as §6, §2, §7
# Rice plants (Oryza sativa, var. Balilla) are treated by spraying with the active ingredient formulation in the desired concentration and then populated with larvae of the green rice leafhopper (Nephotettix cincticeps).
# After the desired time, the kill in % is determined. 100% means that all leafhoppers have been killed; 0% means that none of the leafhoppers have been killed.
# Nilaparvata lugens = Nilaparvata lugens test (NILALU); assay type: in vivo; conditions: 4 ppm
# Description: Nilaparvata lugens Test (NILALU)
# as §6, §2, §7
# Rice plants (Oryza sativa, var. Balilla) are treated by spraying with the active ingredient formulation in the desired concentration and then populated with L3 larvae of the brown planthopper (Nilaparvata lugens).
# After the desired time, the feeding damage in % is determined. 100% means that no feeding damage is found; 0% means that the feeding damage to the treated plant corresponds to that of the untreated control.
# Myzus persicae [5] = test: Myzus persicae translaminar test (MYZUPE t); assay type: in vivo; conditions: 14 dat
# Description: Myzus persicae—Translaminar Test (MYZUPE t)
# as §6, §5, §7
# One-leaved bell pepper plants (Capsicum annuum) heavily infested by the green peach aphid (Myzus persicae) are treated by spraying the top side of the leaf with the active ingredient formulation in the desired concentration.
# as §8
# Aphis gossypii [6] = test: Aphis gossypii contact test (APHIGO c); assay type: in vivo; conditions: 2.4 g/ha, 7 dat
# Description: Aphis gossypii—Contact Test (APHIGO c)
# as §6, §2, §7
# One-leaved cotton plants (Gossypium hirsutum) heavily infested by the cotton aphid (Aphis gossypii) are treated by spraying the underside of the leaf with the active ingredient formulation in the desired concentration.
# as §8
# Myzus persicae [7] = test: Myzus persicae spray test (MYZUPE), bell pepper plants; assay type: in vivo; conditions: application rate 100 ppm, after 6 days
# Description: as §4, §6, §5
# To produce an appropriate active ingredient formulation, 1 part by weight of active ingredient is dissolved using the stated parts by weight of solvent and made up with water containing an emulsifier concentration of 1000 ppm until the desired concentration is attained. To produce further test concentrations, the preparation is diluted with emulsifier-containing water. If the addition of ammonium salts or/and penetrants is required, these are each added in a concentration of 1000 ppm to the formulation solution.
# Bell pepper plants (Capsicum annuum) heavily infested by the green peach aphid (Myzus persicae) are treated by spraying with the active ingredient formulation in the desired concentration.
# After 6 days, the kill in % is determined. 100% means that all the aphids have been killed; 0% means that no aphids have been killed.
Structure (SMILES),LOGP_HCOOH [1],LOGP_NEUTRAL [1],efficacy (Spodoptera frugiperda),efficacy (Tetranychus urticae; application rate 500 g/ha),efficacy (Phaedon cochleariae; application rate 500 g/ha),efficacy (Myzus persicae [2]),also measured
CCSc1ccc(Cl)cc1-c1nc2cc(C(F)(F)F)ncc2n1C [Example I-19],3.43,3.38,83%,90%,100%,90%,
CCS(=O)(=O)c1cc(C(F)(F)F)cnc1-c1nc2cc(C(F)(F)F)cnc2n1C [Ex. 5 known from WO2013018928],,,,,,,% efficacy (Aphis gossypii [3]): 0%; % efficacy (Myzus persicae [4]): 50%; % efficacy (Nephotettix cincticeps; 14 dat): 0%; % efficacy (Nephotettix cincticeps; 21 dat): 0%; % efficacy (Nephotettix cincticeps; 34 dat): 0%; % efficacy (Nilaparvata lugens; 21 dat): 35%; % efficacy (Nilaparvata lugens; 28 dat): 20%; % efficacy (Myzus persicae [5]; 2.4 g/ha): 0%; % efficacy (Myzus persicae [5]; 12 g/ha): 0%; % efficacy (Aphis gossypii [6]): 15%
CCSc1cc(Cl)ccc1-c1nc2cc(C(F)(F)F)ncc2n1C [Example I-42],3.46,3.39,100%,90%,100%,90%,
Cn1c(-c2ccc(Cl)cc2S(C)(=O)=O)nc2cc(C(F)(F)F)ncc21 [Example I-11],2.39,2.34,,,,,efficacy (Phaedon cochleariae; application rate 100 g/ha): 100%; efficacy (kill) (Myzus persicae [7]): 97%

# Now from value to molecule, other results behind:
LOGP_HCOOH [1],LOGP_NEUTRAL [1],Structure (SMILES),efficacy (Spodoptera frugiperda),efficacy (Tetranychus urticae; application rate 500 g/ha),efficacy (Phaedon cochleariae; application rate 500 g/ha),efficacy (Myzus persicae [2]),also measured
2.50,2.46,CCS(=O)(=O)c1cccnc1-c1nc2cc(C(F)(F)C(F)(F)F)ncc2n1C [Example I-68],100%,100%,100%,90%,nematicidal efficacy (formation of galls) (Meloidogyne incognita): 100%
2.13,2.11,CCS(=O)(=O)c1ccccc1-c1nc2cc(C(F)(F)F)ncc2n1C [Example I-18],,,100%,100% and 90%,efficacy (Ctenocephalides felis): 100%; efficacy (kill) (Lucilia cuprina): 100%
2.70,2.64,CCS(=O)(=O)c1c(C(F)(F)F)ccnc1-c1nc2cc(C(F)(F)F)ncc2n1C [Example I-48],83%,,100%,100%,efficacy (Tetranychus urticae; application rate 100 g/ha): 90%
